{"source": "paper PMC11905876", "about": "“Population Pharmacokinetic Modeling of Certepetide in Human Subjects With Metastatic Pancreatic Ductal Adenocarcinoma” (Clinical Pharmacology in Drug Development, 2025)", "key": {"plasma proteins": {"tested_on": "plasma proteins", "conditions": "ref data on file; cited from earlier work", "procedure": "(§1) Certepetide is administered as a slow intravenous push over 1 minute shortly after the administration of chemotherapy and/or immunotherapy. Certepetide is thought to be metabolized into its component amino acids, as expected for small peptides."}, "[1]": {"conditions": "autoradiography; ref data on file; cited from earlier work", "procedure": "as §1"}, "[2]": {"assay": "Population pharmacokinetic analysis of certepetide plasma concentrations (first-in-human trial NCT03517176)", "type": "in vivo", "conditions": "for WT on Vc, effect of weight on Vc / WT on Vp, effect of weight on Vp: power model exponent", "procedure": "The clinical aspects of this study were conducted at 3 clinical sites in Australia. All subjects gave their informed consent. The study enrolled subjects with metastatic PDAC and was a rising dose design, with certepetide doses of 0.2, 0.8, 1.6, and 3.2 mg/kg body weight. Each subject received a certepetide monotherapy run‐in followed by 28‐day cycles of certepetide with standard‐of‐care chemotherapy (nab‐paclitaxel and gemcitabine), as previously described.[19] Each 28‐day cycle involved dosing with nab‐paclitaxel, gemcitabine, and certepetide on days 1, 8, and 15. In each dosing instance, nab‐paclitaxel was given first intravenously at a dose of 125 mg/m^2 over 30 minutes. This was immediately followed by the administration of certepetide as a slow intravenous push over 1 minute. Gemcitabine was given as an intravenous infusion at a dose of 1000 mg/m^2 over 30 minutes. Samples for PK analysis were collected before certepetide dosing and at 3, 15, and 30 minutes and 1, 3, and 6 hours after completion of the certepetide infusion. PK collections were performed during a monotherapy run‐in period and on day 1 of chemotherapy cycles 1 and 6. Modeling was performed with all available data.\nCertepetide concentrations in human plasma were determined using a liquid chromatography‐tandem mass spectrometry method across a concentration range of 50.0‐2500 ng/mL, with 50.0 ng/mL as the lower limit of quantification. Briefly, a plasma sample was spiked with a deuterated internal standard and then precipitated by methanol. After centrifugation, the supernatant was transferred to a clean tube and evaporated under nitrogen. Following reconstitution with 5% methanol:water, the sample was injected into a Shimadzu Nexera UPLC that used a Kinetex EVO‐C18 column for separation using first mobile phase A (0.1% formic acid in deionized water) followed by mobile phase B (0.1% formic acid in methanol). The multiple reaction monitoring transition was monitored on an ABSciex QTRAP 5500 mass spectrometer. The transitions used for certepetide and deuterated certepetide (+6) were 494.9 → 70.1 and 497.7 → 75.0, respectively. For intraday runs, the average accuracy and precision were 10.2% and 9.6%, respectively, at a concentration of 150 ng/mL. The inter‐day accuracy and precision were 10.2% and 9.7%, respectively.\nThe PK analysis dataset was composed of actual dates and times of dose and concentration samples. Post‐dose PK concentration data below the limit of quantification were accounted for using the M1 method (ie, excluded from the analysis).[22] Subject covariates at baseline were derived from the source data at the baseline visit, the screening visit, or another visit before the start of certepetide administration.\nNONMEM software (version 7.5.1, ICON Development Solutions)[23] was used to perform nonlinear mixed‐effects modeling. Data assembly, graphical analyses, and model simulations were performed using NONMEM (version 7.5.1) and R (version 4.3.1).\nA 2‐compartment model with linear elimination was used as the starting point for model development. Interindividual variability was included in structural model parameters (eg, central volume of distribution [Vc], clearance [CL], peripheral volume of distribution [Vp], and distribution clearance [Q]). Interindividual variability, assumed to have log‐normal distribution, was calculated using Equation (1). (1) θP,i=θP,typical·e^ηP,i\nThe residual variance was initially modeled using an additive and proportional error model (Equation 4), which accounted for […], assay error, model misspecification, and any potential data issues (eg, incorrect dose or sample collection times). (4) Yij=IPREDij×1+ε1,ij+ε2,ij\nModel development continued by adding covariates in a stepwise fashion and assessing the change in objective function value (OFV). […]"}, "[3]": {"tested_on": "patients with unresectable metastatic PDAC", "set-up": "method as in PMID 35803294, PMID 36982773", "conditions": "cited from earlier work"}, "[4]": {"conditions": "final population PK model, reference 70 kg"}, "[5]": {"conditions": "interim population PK model with body weight and age on clearance, typical value"}}}
{"molecule": "CC(=O)N[C@H]1CSSC[C@@H](C(N)=O)NC(=O)[C@H](CC(=O)O)NC(=O)[C@@H]2CCCN2C(=O)CNC(=O)[C@H](CCCCN)NC(=O)[C@H](CC(=O)O)NC(=O)CNC(=O)[C@H](CCCNC(=N)N)NC1=O", "note": "[Certepetide]", "values": [{"measurement": "Plasma protein binding", "setting": "plasma proteins", "result": "does not bind to plasma proteins"}, {"measurement": "Route of elimination", "setting": "[1]", "result": "primarily undergoes renal elimination"}, {"measurement": "Dose linearity of PK", "setting": "[2]; concentration-time and dose-normalized curves at 0.2, 0.8, 1.6 and 3.2 mg/kg", "result": "linear PKs"}, {"measurement": "Vc, central volume of distribution", "setting": "[2]; final population PK model (2-compartment, linear elimination, NONMEM), 31 patients with metastatic PDAC, 0.2-3.2 mg/kg IV push over 1 min with nab-paclitaxel and gemcitabine, plasma LC-MS/MS, typical value, reference 70 kg", "result": 5.87, "unit": "L"}, {"measurement": "Q, intercompartmental clearance", "setting": "[2]; final population PK model, 31 patients with metastatic PDAC, IV, typical value", "result": 24.9, "unit": "L/h"}, {"measurement": "CLR, renal clearance (dependent on CrCL)", "setting": "[2]; final population PK model, 31 patients with metastatic PDAC, IV, typical value at reference CrCL 90 mL/min, purely model-derived", "result": 4.32, "unit": "L/h"}, {"measurement": "Vp, peripheral volume of distribution", "setting": "[2]; final population PK model, 31 patients with metastatic PDAC, IV, typical value, reference 70 kg", "result": 10.3, "unit": "L"}, {"measurement": "CLNR, nonrenal clearance (independent of CrCL)", "setting": "[2]; final population PK model, 31 patients with metastatic PDAC, IV, typical value, purely model-derived", "result": 2.56, "unit": "L/h"}, {"measurement": "WT on Vc, effect of weight on Vc", "setting": "[2]; [4]", "result": 0.933}, {"measurement": "WT on Vp, effect of weight on Vp", "setting": "[2]; [4]", "result": 0.879}, {"measurement": "clearance", "setting": "[2]; human, plasma, iv, interim population PK model with body weight and age on clearance, typical value, reference 70 kg, 60 years, read-out: CL, clearance (converted)", "result": 118, "unit": "mL/min"}, {"measurement": "Vc, central volume of distribution", "setting": "[2]; interim population PK model with body weight and age on clearance, 31 patients with metastatic PDAC, IV, typical value", "result": 5.87, "unit": "L"}, {"measurement": "Q, intercompartmental clearance", "setting": "[2]; [5]", "result": 25.0, "unit": "L/h"}, {"measurement": "Vp, peripheral volume of distribution", "setting": "[2]; [5]", "result": 10.3, "unit": "L"}, {"measurement": "WT on Vc, effect of weight on Vc", "setting": "[2]; interim population PK model", "result": 0.940}, {"measurement": "WT on Vp, effect of weight on Vp", "setting": "[2]; interim population PK model", "result": 0.885}, {"measurement": "Patients with ≥50% reduction in CA19-9", "setting": "[3]; cycle 5, day 1, certepetide with nab-paclitaxel and gemcitabine", "result": "20 out of 22"}, {"measurement": "Dose-limiting toxicities associated with the study drug", "setting": "[3]; doses 0.2-3.2 mg/kg", "result": "no dose‐limiting toxicities"}]}
